The values that follow are results of earlier work, collected in US20050181032A1, “Metastable pharmaceutical compositions” (Acrux DDS Pty Ltd., priority 2002, published 2005).

As usually defined, the LogP is a log measure of how a compound divides between an organic and an aqueous phase.

The structures appear in SMILES notation.

With `C#C[C@]1(O)CC[C@H]2[C@@H]3CCc4cc(O)ccc4[C@H]3CC[C@@]21C` [EE2, Ethinyl Estradiol], the log partition coefficient (LogP) is given as 3.91.
